The values below come from ChEMBL document CHEMBL1201862, “PubChem BioAssay data set” (2004).

What all share (assay): DTP human tumour cell line panel, 48 h
Experiment [1] deals with Malme-3M.
For experiment [2], the system named is CAKI-1.
Experiment [3] concerns KM12.
Experiment [4] has as its system SNB-75.
Experiment [5] deals with HCC 2998.
The test system of experiment [6] is NCI-H522.
Experiment [7] concerns HCT-15.
The subject of experiment [8] is OVCAR-4.
The subject of experiment [9] is MDA-MB-231.
In experiment [10] the test system is UACC-257.
In experiment [11] the test system is SK-MEL-2.
Experiment [12] relates to ACHN.
Experiment [13] relates to COLO 205.
The subject of experiment [14] is M14.
The test system of experiment [15] is U-251.
In experiment [16] the test system is UACC-62.
The subject of experiment [17] is OVCAR-3.
In experiment [18] the test system is NCI-H226.
Experiment [19] relates to SF-539.
Experiment [20] concerns A498.

The structures appear in SMILES notation.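 Following 48 hours of exposure in 96-well plates, responses at five concentrations were used to interpolate endpoints linearly. GI50 marks 50% less growth.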 The source made the active and inactive calls. Cut-off read from the data, not from the text of the source: active = GI50 up to about 1.1 µM and inactive = higher.

Regarding `C=C1C(=O)O[C@H]2C1C[C@@H](O)[C@@]1(C)OC1CC[C@@]1(C)O[C@H]21` (stereo partly drawn), the GI50 in [1] is 11.7 µM (inactive); in experiment [2], 16.7 µM (inactive); in experiment [3], 20.6 µM (inactive); in experiment [4], 74.1 µM (inactive); in experiment [5], 15.2 µM (inactive); in [6] it was 5.62 µM (inactive). In addition, the GI50 was 14.9 µM in experiment [7]; 13.9 µM (inactive) in [8]; 19.1 µM (inactive) in experiment [9]; 19.5 µM (inactive) in experiment [10]; 17.6 µM (inactive) in experiment [11]; 13.7 µM (inactive) in experiment [12]. The GI50 in experiment [13] was 11.6 µM (inactive); in experiment [14], 16.3 µM (inactive); in experiment [15] it was > 100 µM (inactive); in experiment [16], 15.3 µM (inactive).
With `CCOC(=O)C(NCc1cccc(C(F)(F)F)c1)(NC(=O)c1ccccc1)C(F)(F)F` (stereo not drawn), the GI50 in experiment [1] was 21.7 µM (inactive); in experiment [17], 22.8 µM (inactive); in [2], 14.4 µM (inactive); in [3], 28.1 µM (inactive); in [4], 27.4 µM (inactive); in [5], 26.1 µM (inactive). Besides, the GI50 in [6] is 17.6 µM (inactive); in experiment [7], 23.1 µM; in experiment [8], 21.6 µM (inactive); in [9] it was 11.5 µM (inactive); in experiment [10], 18 µM (inactive); in [11] it was 21.4 µM (inactive). The GI50 in experiment [12] was 25.9 µM (inactive); in experiment [18], 27.2 µM (inactive); in experiment [13], 16.4 µM (inactive); in experiment [14] it was 27.8 µM (inactive); in experiment [15] it was 34 µM (inactive); in experiment [16] it was 13.9 µM (inactive). In addition, the GI50 in experiment [19] was 24.2 µM (inactive).
On to `Cc1nc2ccc(C(F)(F)F)cc2nc1NCc1ccc(Cl)c(Cl)c1`, for which the GI50 is 17.2 µM (inactive) in experiment [1]; 13.3 µM (inactive) in [17]; 18.8 µM (inactive) in experiment [2]; 14.2 µM (inactive) in [3]; 12.9 µM (inactive) in [4]; 10.5 µM (inactive) in experiment [5]. The GI50 in experiment [6] is 14.8 µM (inactive); in experiment [7] it was 12.7 µM; in experiment [9], 15.8 µM (inactive); in experiment [10], 15.9 µM (inactive); in experiment [12] it was 14.8 µM (inactive); in [18], 18.1 µM (inactive). Further, the GI50 in [13] was 15.4 µM (inactive); in [15] it was 16.5 µM (inactive); in experiment [16] it was 3.28 µM (inactive); in experiment [19], 17.5 µM (inactive).
In the case of `O=C(NC12CC3CC(CC(C3)C1)C2)n1cnc2c(Cl)ncnc21`, the GI50 was > 100 µM (inactive) in experiment [1]; 22.7 µM (inactive) in [17]; > 100 µM (inactive) in experiment [2]; > 100 µM (inactive) in experiment [3]; 27.4 µM (inactive) in experiment [4]; 19.1 µM (inactive) in experiment [5]. Also, the GI50 in experiment [6] was 27.9 µM (inactive); in [7], 35 µM; in [9], 42.8 µM (inactive); in experiment [10] it was 35.8 µM (inactive); in [11], 28.3 µM (inactive); in experiment [12], 21.2 µM (inactive). The GI50 in [20] was > 100 µM (inactive); in experiment [13] it was 17 µM (inactive); in experiment [14] it was 23.1 µM (inactive); in [15] it was 27.2 µM (inactive); in [16], 81.1 µM (inactive); in experiment [19], 42.6 µM (inactive).
Regarding `Nc1nc(=O)c(/N=N/c2ccccc2)c(C(=O)O)[nH]1`, the GI50 is 85.3 µM (inactive) in experiment [1]; 98.4 µM (inactive) in experiment [17]; > 100 µM (inactive) in experiment [2]; > 100 µM (inactive) in experiment [3]; > 100 µM (inactive) in experiment [4]; 52.7 µM (inactive) in [6]. For the same compound, the GI50 was 75.2 µM in experiment [7]; > 100 µM (inactive) in experiment [8]; > 100 µM (inactive) in experiment [9]; 62.8 µM (inactive) in experiment [10]; > 100 µM (inactive) in [11]; > 100 µM (inactive) in [12]. For the same compound, the GI50 was > 100 µM (inactive) in experiment [18]; > 100 µM (inactive) in experiment [20]; > 100 µM (inactive) in experiment [13]; > 100 µM (inactive) in experiment [14]; 56.9 µM (inactive) in [15]; > 100 µM (inactive) in experiment [16]. Besides, the GI50 in experiment [19] is > 100 µM (inactive).
For the compound `S=C(CSc1ccccc1)Nc1cccc2ccccc12`, the GI50 in [1] is 40.3 µM (inactive); in experiment [17], 20.8 µM (inactive); in [2], 59 µM (inactive); in experiment [3], 40.8 µM (inactive); in [4] it was > 100 µM (inactive); in experiment [6], 20.9 µM (inactive). In addition, the GI50 in [7] is 48.4 µM; in experiment [8], 21.6 µM (inactive); in [9], 80.2 µM (inactive); in [10], 22.3 µM (inactive); in experiment [11], 24.3 µM (inactive); in experiment [12], 39.7 µM (inactive). Moreover, the GI50 in experiment [18] was 42 µM (inactive); in [20] it was 23.1 µM (inactive); in experiment [13], 16.4 µM (inactive); in experiment [14], 54.2 µM (inactive); in [15], 38.8 µM (inactive); in experiment [16] it was 32.7 µM (inactive). Also, the GI50 in experiment [19] is 28.4 µM (inactive).
As to `c1ccc(-c2cn3nc(N4CCOCC4)sc3n2)cc1`, the GI50 in experiment [1] was > 100 µM (inactive); in experiment [17], > 100 µM (inactive); in experiment [2], 16.6 µM (inactive); in [3], > 100 µM (inactive); in experiment [4], 38.7 µM (inactive); in [5], > 100 µM (inactive). Also, the GI50 in experiment [6] was > 100 µM (inactive); in experiment [7], > 100 µM; in experiment [8], 34 µM (inactive); in experiment [9], 85.9 µM (inactive); in experiment [10] it was > 100 µM (inactive); in experiment [11] it was > 100 µM (inactive). Besides, the GI50 was > 100 µM (inactive) in experiment [12]; > 100 µM (inactive) in [18]; > 100 µM (inactive) in experiment [13]; > 100 µM (inactive) in experiment [14]; 48.6 µM (inactive) in experiment [15]; > 100 µM (inactive) in experiment [16].
As to `N=C(CC(=O)Nc1ccccn1)c1ccccc1`, the GI50 in experiment [1], in [17], in experiment [2], in experiment [3], in experiment [4] and in [6] was > 100 µM (inactive) in each case. Besides, the 50% growth inhibitory concentration (GI50) is > 100 µM in [7]; > 100 µM (inactive) in experiment [8]; > 100 µM (inactive) in [9]; > 100 µM (inactive) in [10]; > 100 µM (inactive) in experiment [11]; > 100 µM (inactive) in experiment [12]. For the same compound, the GI50 in experiment [18], in experiment [20], in experiment [13], in experiment [14], in [15] and in experiment [16] was > 100 µM (inactive) in each case. Besides, in experiment [19], the GI50 was > 100 µM (inactive).
Take `O=CC(O)C(O)C(O)C1CNC(=S)O1` (stereo not drawn): the GI50 in [1], in experiment [17], in experiment [2], in experiment [3], in [4] and in experiment [6] was > 100 µM (inactive) in each case. Further, the GI50 in experiment [7] was > 100 µM; in experiment [8], > 100 µM (inactive); in experiment [9] it was > 100 µM (inactive); in experiment [10] it was > 100 µM (inactive); in experiment [11] it was > 100 µM (inactive); in experiment [12], > 100 µM (inactive). The GI50 in experiment [18], in experiment [20], in experiment [13], in experiment [14], in [15] and in experiment [16] was > 100 µM (inactive) in each case. For the same compound, the GI50 in [19] is > 100 µM (inactive).
For the compound `CCOC(=O)c1cc2c(=Cc3ccc(N(C)C)cc3)c3ccccc3n2[n+]1C`, the GI50 in experiment [17] was 0.206 µM (active); in experiment [2], 1.64 µM (inactive); in [5] it was 1.69 µM (inactive); in [7] it was 10.4 µM; in [8], 3.1 µM (inactive); in experiment [9] it was 3.86 µM (inactive). The GI50 in [10] was 1.57 µM (inactive); in experiment [11] it was 1.48 µM (inactive); in experiment [12], 5.87 µM (inactive); in experiment [18], 8.24 µM (inactive); in [20], 10.4 µM (inactive); in [13] it was 0.309 µM (active). Besides, the GI50 is 3.15 µM (inactive) in experiment [14], 0.304 µM (active) in experiment [15], 1.33 µM (inactive) in experiment [16] and 0.577 µM (active) in experiment [19].
Regarding `Cc1cc(C)nc(NS(=O)(=O)c2ccc(NC(=O)c3ccc4nc5ccccc5c(Nc5ccc(S(N)(=O)=O)cc5)c4c3)cc2)n1`, the GI50 in experiment [1] was 93.3 µM (inactive); in experiment [17], 48.5 µM (inactive); in [2] it was > 100 µM (inactive); in experiment [3], 65.8 µM (inactive); in experiment [4] it was > 100 µM (inactive); in [5], > 100 µM (inactive). The GI50 in experiment [6] was 34.2 µM (inactive); in experiment [7], > 100 µM; in [8], 83.8 µM (inactive); in [9], 94.2 µM (inactive); in experiment [10] it was > 100 µM (inactive); in experiment [11], 42.9 µM (inactive). The GI50 is > 100 µM (inactive) in experiment [12]; > 100 µM (inactive) in experiment [18]; > 100 µM (inactive) in experiment [13]; > 100 µM (inactive) in experiment [14]; 59 µM (inactive) in experiment [15]; > 100 µM (inactive) in [16]. In experiment [19], the GI50 was > 100 µM (inactive).

As usually defined, the GI50 is the concentration giving 50% growth inhibition.
